# In patent US20160319277A1, “METHODS OF IMPROVED PROTEIN PRODUCTION USING MIRNAs AND SIRNAs” (THE JOHNS HOPKINS UNIVERSITY, priority 2015, published 2016):
# Experiments:
# [1] = system: T-REx-293-NTSR1-GFP cells; experiment: High-throughput human miRNA mimic library screen, image-based per cell green fluorescence (NTSR1-GFP expression); conditions: per cell green fluorescence intensity; for MAD-based z-score: 72 h after transfection plus 24 h tetracycline induction
# Experimental: T-REx-293-NTSR1-GFP cells were screened with a miRNA mimic library (Qiagen) based on Sanger miRBase™ 13.0 and consisting of 875 miRNAs mimics. For transfection, 0.8 pmol of each mimic was spotted to 384 well plate wells (Corning) and 20 μL of serum-free DMEM containing 0.1 μL of Lipofectamine™ RNAiMax (Life Technologies) was then added to each well. This lipid-miRNA mixture was incubated at ambient temperature for 30 min prior to adding 2000 cells in 20 μL of DMEM containing 20% certified FBS (Gibco). Transfected cells were incubated at 37° C. in 5% CO2 for 72 hours and induced with 1 μg/mL tetracycline for 24 hours for NTSR1-GFP expression. Cells were then fixed with 2% paraformaldehyde (Electron Microscopy Sciences), stained with Hoechst™ 33342 (Life Technologies) for 45 minutes and gently washed with PBS. Plates were imaged with an ImageXpress Micro XL™ (Molecular Devices). Total cell number and per cell green fluorescence intensity were calculated using MetaXpress™ software (Molecular Devices) employing the Multi-Wavelength Cell Scoring™ application module. […] A full column of positive control siRNA targeting GFP (GFP-22 siRNA, Qiagen) was also used as on-plate reference for transfection efficiency. The median absolute deviation (MAD)-based z-score was calculated for each sample.
# HEK-CMV-Luc2-Hygro cells = experiment: High-throughput genome-wide siRNA screen and validation screen for luciferase expression; type: cell-based, human; conditions: for Viable cell density (%) / per cell luciferase yield (%): Table 4, negative control = 100%; for Viable cell density (%) / per cell luciferase yield (%) / per_cell / VIA: primary screen, 72 h; for per_cell / VIA: Table 3; for per_cell: per cell luciferase yield relative to negative control; for VIA: viable cell density as % of negative control; for Luciferase activity (%) / Per cell luciferase yield (%) / Viable cell number (%): Table 6, polyamine pathway gene siRNAs
# How it was run: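 HEK cells with CMV-driven luciferase were reverse-transfected with 0.8 pmol siRNA per well (3 per gene) via RNAiMax and grown 72 h at 37 °C. Duplicate wells read for luciferase (ONE-Glo) and viability (CellTiter-Glo). Values given as % of plate negative-control median with MAD-based z-scores; hits with ≥2 siRNAs at z>3 retested using 3 new siRNAs.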
substance,measurement,setting,value
"UGAGGUAGUAGGUUGUAUGGUU (listed as RNA, chemistry not given here; listed as Homo sapiens) [let-7c-5p, human miRNA mimic]",Signal relative to negative control (%),[1],168%
same,MAD-based z-score,[1],2.6
"ACAGAUUCGAUUCUAGGGGAAU (listed as RNA, chemistry not given here; listed as Homo sapiens) [miR-10b-3p, human miRNA mimic]",Signal relative to negative control (%),[1],162%
same,MAD-based z-score,[1],2.4
CUGUGCGUGUGACAGCGGCUGA [miR-210-3p],Signal relative to negative control (%),[1],183%
same,MAD-based z-score,[1],3.2
"CAUCCCUUGCAUGGUGGAGGG (listed as RNA, chemistry not given here; listed as Homo sapiens) [miR-188-5p, human miRNA mimic]",Signal relative to negative control (%),[1],177%
same,MAD-based z-score,[1],2.9
"CAGUGCAAUAGUAUUGUCAAAGC (listed as RNA, chemistry not given here; listed as Homo sapiens) [miR-301a-3p, human miRNA mimic]",Signal relative to negative control (%),[1],176%
same,MAD-based z-score,[1],2.9
"AAACCUGUGUUGUUCAAGAGUC (listed as RNA, chemistry not given here; listed as Homo sapiens) [miR-649, human miRNA mimic]",Signal relative to negative control (%),[1],150%
same,MAD-based z-score,[1],2.0
"CUGCCAAUUCCAUAGGUCACAG (listed as RNA, chemistry not given here; listed as Homo sapiens) [miR-192-3p, human miRNA mimic]",Signal relative to negative control (%),[1],148%
same,MAD-based z-score,[1],2.0
"AACUGGCCCUCAAAGUCCCGCU (listed as RNA, chemistry not given here; listed as Homo sapiens) [miR-193b-3p, human miRNA mimic]",Signal relative to negative control (%),[1],166%
same,MAD-based z-score,[1],2.5
"UCCGUCUCAGUUACUUUAUAGC (listed as RNA, chemistry not given here; listed as Homo sapiens) [miR-340-3p, human miRNA mimic]",Signal relative to negative control (%),[1],159%
same,MAD-based z-score,[1],2.3
"GCUACUUCACAACACCAGGGCC (listed as RNA, chemistry not given here; listed as Homo sapiens) [miR-138-1-3p, human miRNA mimic]",Signal relative to negative control (%),[1],167%
same,MAD-based z-score,[1],2.5
140 (GUCCGAGUGUGGUUCUGUATT; chemistry not given here; listed as Homo sapiens) [compound 140],Viable cell density (%),HEK-CMV-Luc2-Hygro cells,85.820%
same,per cell luciferase yield (%),HEK-CMV-Luc2-Hygro cells,180.401%
76 (CUUUUAAUGUUAAACUACATT; chemistry not given here; listed as Homo sapiens) [compound 76],per_cell,HEK-CMV-Luc2-Hygro cells,133.6
same,VIA,HEK-CMV-Luc2-Hygro cells,111
72 (GCUCCUCUGUUACCACAGATT; chemistry not given here; listed as Homo sapiens) [compound 72],per_cell,HEK-CMV-Luc2-Hygro cells,179.3
same,VIA,HEK-CMV-Luc2-Hygro cells,91.53
181 (GCUAAGUCUUUUCCACAGUTT; chemistry not given here; listed as Homo sapiens) [compound 181],Viable cell density (%),HEK-CMV-Luc2-Hygro cells,94.537%
same,per cell luciferase yield (%),HEK-CMV-Luc2-Hygro cells,155.385%
94 (AGAGGCUACUUUGAAAACATT; chemistry not given here; listed as Homo sapiens) [compound 94],Viable cell density (%),HEK-CMV-Luc2-Hygro cells,66.938%
same,per cell luciferase yield (%),HEK-CMV-Luc2-Hygro cells,227.583%
109 (GCAUCGAGGAGACUAACAATT; chemistry not given here; listed as Homo sapiens) [compound 109],Viable cell density (%),HEK-CMV-Luc2-Hygro cells,51.696%
same,per cell luciferase yield (%),HEK-CMV-Luc2-Hygro cells,275.068%
101 (GUUCAUCCAUAAGUACAUUTT; chemistry not given here; listed as Homo sapiens) [compound 101],Viable cell density (%),HEK-CMV-Luc2-Hygro cells,83.129%
same,per cell luciferase yield (%),HEK-CMV-Luc2-Hygro cells,238.606%
46 (CUCUUAUGGUAACCAAUGATT; chemistry not given here; listed as Homo sapiens) [compound 46],per_cell,HEK-CMV-Luc2-Hygro cells,160.2
same,VIA,HEK-CMV-Luc2-Hygro cells,91.56
62 (AGGUCAAUGUGACUUUCCATT; chemistry not given here; listed as Homo sapiens) [compound 62],per_cell,HEK-CMV-Luc2-Hygro cells,161.8
same,VIA,HEK-CMV-Luc2-Hygro cells,105
124 (GAAUAACCGUUGGUUUAAUTT; chemistry not given here; listed as Homo sapiens) [compound 124],Viable cell density (%),HEK-CMV-Luc2-Hygro cells,65.083%
same,per cell luciferase yield (%),HEK-CMV-Luc2-Hygro cells,292.710%
214 (CCGUAGACUCGCUCAUCUCTT; chemistry not given here; listed as Homo sapiens) [compound 214],Luciferase activity (%),HEK-CMV-Luc2-Hygro cells,174.4%
same,Per cell luciferase yield (%),HEK-CMV-Luc2-Hygro cells,204.2%
same,Viable cell number (%),HEK-CMV-Luc2-Hygro cells,85.4%
149 (CGACCAUCAUGGAAAACAUTT; chemistry not given here; listed as Homo sapiens) [compound 149],Viable cell density (%),HEK-CMV-Luc2-Hygro cells,57.472%
same,per cell luciferase yield (%),HEK-CMV-Luc2-Hygro cells,294.800%
42 (CAAGUCACCUGUUACCUCATT; chemistry not given here; listed as Homo sapiens) [compound 42],per_cell,HEK-CMV-Luc2-Hygro cells,171.8
same,VIA,HEK-CMV-Luc2-Hygro cells,88.96
176 (GUUGCAAACUUAUCGAGGATT; chemistry not given here; listed as Homo sapiens) [compound 176],Viable cell density (%),HEK-CMV-Luc2-Hygro cells,79.093%
same,per cell luciferase yield (%),HEK-CMV-Luc2-Hygro cells,186.786%
44 (CAACAGAUCAGAGAACAAATT; chemistry not given here; listed as Homo sapiens) [compound 44],per_cell,HEK-CMV-Luc2-Hygro cells,156.4
same,VIA,HEK-CMV-Luc2-Hygro cells,92.43
45 (GGAUAUUGGAGGCUAGUCATT; chemistry not given here; listed as Homo sapiens) [compound 45],per_cell,HEK-CMV-Luc2-Hygro cells,157.9
same,VIA,HEK-CMV-Luc2-Hygro cells,89.68
225 (GCUUGCAGUUAAUAUCAUUTT; chemistry not given here; listed as Homo sapiens) [compound 225],Luciferase activity (%),HEK-CMV-Luc2-Hygro cells,28.4%
same,Per cell luciferase yield (%),HEK-CMV-Luc2-Hygro cells,46.7%
same,Viable cell number (%),HEK-CMV-Luc2-Hygro cells,60.8%
115 (AGAUACUGGUAUUGCUCGATT; chemistry not given here; listed as Homo sapiens) [compound 115],Viable cell density (%),HEK-CMV-Luc2-Hygro cells,54.559%
same,per cell luciferase yield (%),HEK-CMV-Luc2-Hygro cells,388.072%
139 (GGAGAUAUGCAAAGCAGAATT; chemistry not given here; listed as Homo sapiens) [compound 139],Viable cell density (%),HEK-CMV-Luc2-Hygro cells,83.011%
same,per cell luciferase yield (%),HEK-CMV-Luc2-Hygro cells,194.043%
50 (GGAGGAAUCUCGAAUGCGATT; chemistry not given here; listed as Homo sapiens) [compound 50],per_cell,HEK-CMV-Luc2-Hygro cells,173.3
same,VIA,HEK-CMV-Luc2-Hygro cells,96
54 (GCAUCUGUCCGAUCGCUCUTT; chemistry not given here; listed as Homo sapiens) [compound 54],per_cell,HEK-CMV-Luc2-Hygro cells,143.9
same,VIA,HEK-CMV-Luc2-Hygro cells,105.5
77 (CAAUGGAACAAUCAAAGUUTT; chemistry not given here; listed as Homo sapiens) [compound 77],per_cell,HEK-CMV-Luc2-Hygro cells,180.8
same,VIA,HEK-CMV-Luc2-Hygro cells,89.61
61 (GGACGGAAGCGAAAAUCGATT; chemistry not given here; listed as Homo sapiens) [compound 61],per_cell,HEK-CMV-Luc2-Hygro cells,216.2
same,VIA,HEK-CMV-Luc2-Hygro cells,71.47
167 (CCUGGACAGUUUGAAGCAATT; chemistry not given here; listed as Homo sapiens) [compound 167],Viable cell density (%),HEK-CMV-Luc2-Hygro cells,88.009%
same,per cell luciferase yield (%),HEK-CMV-Luc2-Hygro cells,174.946%
131 (GGAGAAAGAAUCAACGGAATT; chemistry not given here; listed as Homo sapiens) [compound 131],Viable cell density (%),HEK-CMV-Luc2-Hygro cells,70.586%
same,per cell luciferase yield (%),HEK-CMV-Luc2-Hygro cells,284.565%
180 (CCACCCUACUAUGUACUGUTT; chemistry not given here; listed as Homo sapiens) [compound 180],Viable cell density (%),HEK-CMV-Luc2-Hygro cells,93.181%
same,per cell luciferase yield (%),HEK-CMV-Luc2-Hygro cells,185.763%
215 (GCUAACUUAUUCUACUCCGTT; chemistry not given here; listed as Homo sapiens) [compound 215],Luciferase activity (%),HEK-CMV-Luc2-Hygro cells,171.1%
same,Per cell luciferase yield (%),HEK-CMV-Luc2-Hygro cells,154.7%
same,Viable cell number (%),HEK-CMV-Luc2-Hygro cells,110.6%
218 (GGACCUCCCUGUGAAUGAUTT; chemistry not given here; listed as Homo sapiens) [compound 218],Luciferase activity (%),HEK-CMV-Luc2-Hygro cells,95.4%
same,Per cell luciferase yield (%),HEK-CMV-Luc2-Hygro cells,110.9%
same,Viable cell number (%),HEK-CMV-Luc2-Hygro cells,86.0%
107 (CCAUAUAUCCGAAUGACCATT; chemistry not given here; listed as Homo sapiens) [compound 107],Viable cell density (%),HEK-CMV-Luc2-Hygro cells,63.879%
same,per cell luciferase yield (%),HEK-CMV-Luc2-Hygro cells,256.443%
158 (CUUCGACAGUACUUCCGGATT; chemistry not given here; listed as Homo sapiens) [compound 158],Viable cell density (%),HEK-CMV-Luc2-Hygro cells,104.020%
same,per cell luciferase yield (%),HEK-CMV-Luc2-Hygro cells,161.613%
